Source: patent US8460274B2, “Long term drug delivery devices with polyurethane-based polymers and their manufacture” (Endo Pharmaceuticals Solutions Inc., priority 2008, dated 2013)
“And” between values parts separate entries of the source, which are not always exact repeats. Identical values can stand only once. Counter-ions that a name gives are not always drawn.

How the values were obtained:
[1] = Release rates of active agents from Tecophilic, Tecoflex and Carbothane polyurethane implants (Example 6); type: physicochemical
[2] = cited from earlier work
[3] = In vitro elution of histrelin from Tecophilic HP-60D-20 polyurethane implant (Example 1); type: physicochemical; conditions: HP-60D-20 implant
Excerpt: HP-60D-20 is extruded to tubes with thickness of 0.30 mm with inside diameter of 1.75 mm. The tubes are then cut into 25 mm in length. One side of the tube is sealed with heat using a heat sealer. The sealing time is less than one minute. Four pellets of histrelin acetate are loaded into the tube. […] Each pellet is comprised of a mixture of 98% histrelin and 2% stearic acid. The second end open of the tube is sealed with heat in the same way as for the first end. The loaded implant is then conditioned and primed. The conditioning takes place at room temperature in a 0.9% saline solution for one day. Upon completion of the conditioning, the implant undergoes priming. The priming takes place at room temperatures in a 1.8% saline solution for one day. Each implant is tested in vitro in a medium selected to mimic the pH found in the human body. The temperature of the selected medium was kept at approximately 37° C. during the testing. The release rates are shown on FIG. 4 and Table 2.

[4] = In vitro elution of naltrexone from Tecophilic HP-60D-35 polyurethane implants (Example 2); type: physicochemical; conditions: HP-60D-35 implants -1, -2, -3, in vitro
Experimental: HP-60D-35 is extruded to tubes with thickness of 0.30 mm with inside diameter of 1.75 mm. The tubes are then cut into 32 mm in length. One side of the tube is sealed with heat using a heat sealer. The sealing time is less than one minute. Six pellets of naltrexone are loaded into the tubes and both open sides of the tubes are sealed with heat. Each pellet weighs approximately 15.0 mg for a total of 91 mg. The second end open of the tube is sealed with heat in the same way as for the first end. The loaded implant is then conditioned and primed. The conditioning takes place at room temperature in a 0.9% saline solution for one week. Upon completion of the conditioning, the implant undergoes priming. The priming takes place at room temperatures in a 1.8% saline solution for one week. Each implant is tested in vitro in a medium selected to mimic the pH found in the human body. The temperature of the selected medium was kept at approximately 37° C. during the testing. The release rates are shown on FIG. 5 and Table 3.

[5] = cited from earlier work; remark: listed apart in the source
[6] = subcutaneous implants, end of the third month
[7] = Carbothane PC-3595A, F.M.: 4,500

Compound: Clc1cccc(Cl)c1N=C1NCCN1 [Clonidine Base]
- non-normalized release rate ([1]; Carbothane PC-3575A, F.M.: 620): 400 µg/day
- release rate normalized to surface area of the implant ([1]; Carbothane PC-3575A, F.M.: 620): 202 μg/day/cm^2
- non-normalized release rate [1, 7]: 270 µg/day
- release rate normalized to surface area of the implant [1, 7]: 136 μg/day/cm^2
- non-normalized release rate ([1]; Tecoflex EG 100A, F.M.: 10,000): 175 µg/day
- release rate normalized to surface area of the implant ([1]; Tecoflex EG 100A, F.M.: 10,000): 88 μg/day/cm^2
- non-normalized release rate ([1]; Tecoflex EG-65D, F.M.: 37,000): 50 µg/day
- release rate normalized to surface area of the implant ([1]; Tecoflex EG-65D, F.M.: 37,000): 25 μg/day/cm^2
- non-normalized release rate ([1]; Tecoflex EG-85A, F.M.: 2,300): 2000 µg/day
- release rate normalized to surface area of the implant ([1]; Tecoflex EG-85A, F.M.: 2,300): 1053 μg/day/cm^2
- non-normalized release rate ([1]; Tecophilic HP-60D-20, 15% EWC): 2000 µg/day
- release rate normalized to surface area of the implant ([1]; Tecophilic HP-60D-20, 15% EWC): 1011 μg/day/cm^2
- Log P [2]: Log P = 2.56

Compound: C[C@@H]1C[C@H]2[C@@H]3CCC4=CC(=O)C=C[C@]4(C)[C@@]3(F)[C@@H](O)C[C@]2(C)[C@@]1(O)C(=O)CO [Dexamethasone]
- Log P [2]: Log P = 1.93

Compound: CCNC(=O)[C@@H]1CCCN1C(=O)[C@H](CCCNC(=N)N)NC(=O)[C@H](CC(C)C)NC(=O)[C@@H](Cc1cn(Cc2ccccc2)cn1)NC(=O)[C@H](Cc1ccc(O)cc1)NC(=O)[C@H](CO)NC(=O)[C@H](Cc1c[nH]c2ccccc12)NC(=O)[C@H](Cc1cnc[nH]1)NC(=O)[C@@H]1CCC(=O)N1 [Histrelin Acetate]
- non-normalized release rate [1, 7]: 0.4 µg/day
- release rate normalized to surface area of the implant [1, 7]: 0.2 μg/day/cm^2
- non-normalized release rate ([1]; Tecoflex EG 100A, F.M.: 10,000): 0.5 µg/day
- release rate normalized to surface area of the implant ([1]; Tecoflex EG 100A, F.M.: 10,000): 0.3 μg/day/cm^2
- non-normalized release rate ([1]; Tecophilic HP-60D-20, 15% EWC): 150 µg/day
- release rate normalized to surface area of the implant ([1]; Tecophilic HP-60D-20, 15% EWC): 93 μg/day/cm^2
- non-normalized release rate ([1]; Tecophilic HP-60D-35, 24% EWC): 400 µg/day
- release rate normalized to surface area of the implant ([1]; Tecophilic HP-60D-35, 24% EWC): 248 μg/day/cm^2
- non-normalized release rate ([1]; Tecophilic HP-60D-60, 31% EWC): 500 µg/day
- release rate normalized to surface area of the implant ([1]; Tecophilic HP-60D-60, 31% EWC): 309 μg/day/cm^2
- Histrelin Elution Rates ([3]; week 1 of elution): 451.733 µg/day
- Histrelin Elution Rates ([3]; week 2 of elution): 582.666 µg/day
- Histrelin Elution Rates ([3]; week 3 of elution): 395.9 µg/day
- Histrelin Elution Rates ([3]; week 4 of elution): 310.29 µg/day
- Histrelin Elution Rates ([3]; week 5 of elution): 264.92 µg/day
- Histrelin Elution Rates ([3]; week 6 of elution): 247.17 µg/day
- Histrelin Elution Rates ([3]; week 7 of elution): 215.93 µg/day
- Histrelin Elution Rates ([3]; week 8 of elution): 201.78 µg/day
- Histrelin Elution Rates ([3]; week 9 of elution): 183.22 µg/day
- Histrelin Elution Rates ([3]; week 10 of elution): 174.99 µg/day
- Histrelin Elution Rates ([3]; week 11 of elution): 167.72 µg/day
- Histrelin Elution Rates ([3]; week 12 of elution): 158.37 µg/day
- Histrelin Elution Rates ([3]; week 13 of elution): 153.95 µg/day
- Histrelin Elution Rates ([3]; week 14 of elution): 146.46 µg/day
- Histrelin Elution Rates ([3]; week 15 of elution): 139.83 µg/day
- Histrelin Elution Rates ([3]; week 16 of elution): 129.6 µg/day
- Histrelin Elution Rates ([3]; week 17 of elution): 124.46 µg/day
- Histrelin Elution Rates ([3]; week 18 of elution): 118.12 µg/day
- Histrelin Elution Rates ([3]; week 19 of elution): 120.35 µg/day

Compound: Cc1ccccc1N1C(=O)c2cc(S(N)(=O)=O)c(Cl)cc2NC1C (stereo not drawn) [Metolazone]
- non-normalized release rate ([1]; Carbothane PC-3575A, F.M.: 620): 20 µg/day
- release rate normalized to surface area of the implant ([1]; Carbothane PC-3575A, F.M.: 620): 8.4 μg/day/cm^2
- non-normalized release rate [1, 7]: 6.1 µg/day
- release rate normalized to surface area of the implant [1, 7]: 2.6 μg/day/cm^2
- non-normalized release rate ([1]; Tecoflex EG 100A, F.M.: 10,000): 5.5 µg/day
- release rate normalized to surface area of the implant ([1]; Tecoflex EG 100A, F.M.: 10,000): 2.3 μg/day/cm^2
- non-normalized release rate ([1]; Tecoflex EG-85A, F.M.: 2,300): 77 µg/day
- release rate normalized to surface area of the implant ([1]; Tecoflex EG-85A, F.M.: 2,300): 32 μg/day/cm^2
- non-normalized release rate ([1]; Tecophilic HP-60D-20, 15% EWC): 124 µg/day
- release rate normalized to surface area of the implant ([1]; Tecophilic HP-60D-20, 15% EWC): 50 μg/day/cm^2
- Log P [2]: Log P = 2.50

Compound: O=C1CC[C@@]2(O)[C@H]3Cc4ccc(O)c5c4[C@@]2(CCN3CC2CC2)[C@H]1O5 [Naltrexone Base]
- non-normalized release rate [1, 7]: 25 µg/day
- release rate normalized to surface area of the implant [1, 7]: 5.5 μg/day/cm^2
- non-normalized release rate ([1]; Tecoflex EG 100A, F.M.: 10,000): 55 µg/day
- release rate normalized to surface area of the implant ([1]; Tecoflex EG 100A, F.M.: 10,000): 23 μg/day/cm^2
- non-normalized release rate ([1]; Tecophilic HP-60D-05, 5.5% EWC): 50 µg/day
- release rate normalized to surface area of the implant ([1]; Tecophilic HP-60D-05, 5.5% EWC): 12.7 μg/day/cm^2
- non-normalized release rate ([1]; Tecophilic HP-60D-10, 8.7% EWC): 500 µg/day
- release rate normalized to surface area of the implant ([1]; Tecophilic HP-60D-10, 8.7% EWC): 127 μg/day/cm^2
- non-normalized release rate ([1]; Tecophilic HP-60D-20, 15% EWC): 1000 µg/day
- release rate normalized to surface area of the implant ([1]; Tecophilic HP-60D-20, 15% EWC): 263 μg/day/cm^2
- non-normalized release rate ([1]; Tecophilic HP-60D-35, 24% EWC): 1500 µg/day
- release rate normalized to surface area of the implant ([1]; Tecophilic HP-60D-35, 24% EWC): 704 μg/day/cm^2
- non-normalized release rate ([1]; Tecophilic HP-60D-60, 31% EWC): 2200 µg/day
- release rate normalized to surface area of the implant ([1]; Tecophilic HP-60D-60, 31% EWC): 883 μg/day/cm^2
- Log P [2]: Log P = 2.07
- Naltrexone Elution Rates ([4]; week 1 of release): 1529.26 µg/day and 767.38 µg/day and 1400.95 µg/day
- Naltrexone Elution Rates ([4]; week 2 of release): 1511.77 µg/day and 1280.03 µg/day and 1498.86 µg/day
- Naltrexone Elution Rates ([4]; week 3 of release): 1456.01 µg/day and 1635.97 µg/day and 1449.49 µg/day
- Naltrexone Elution Rates ([4]; week 4 of release): 1378.27 µg/day and 1607.13 µg/day and 1500.42 µg/day
- Naltrexone Elution Rates ([4]; week 5 of release): 1393.05 µg/day and 1614.52 µg/day and 1558.37 µg/day
- Naltrexone Elution Rates ([4]; week 6 of release): 1321.71 µg/day and 1550.39 µg/day and 1436.03 µg/day
- Naltrexone Elution Rates ([4]; week 7 of release): 1273.07 µg/day and 1424.24 µg/day and 1300.73 µg/day
- Naltrexone Elution Rates ([4]; week 8 of release): 1172.82 µg/day and 1246.48 µg/day and 1221.57 µg/day

Compound: C[C@@H](O)[C@@H]1NC(=O)[C@H](CCCCN)NC(=O)[C@@H](Cc2c[nH]c3ccccc23)NC(=O)[C@H](Cc2ccccc2)NC(=O)[C@@H](NC(=O)[C@H](N)Cc2ccccc2)CSSC[C@@H](C(=O)N[C@H](CO)[C@@H](C)O)NC1=O [Octreotide Acetate]
- non-normalized release rate ([1]; Tecoflex EG-85A, F.M.: 2,300): 30 µg/day
- release rate normalized to surface area of the implant ([1]; Tecoflex EG-85A, F.M.: 2,300): 16 μg/day/cm^2
- non-normalized release rate ([1]; Tecophilic HP-60D-05, 5.5% EWC): 0 µg/day
- release rate normalized to surface area of the implant ([1]; Tecophilic HP-60D-05, 5.5% EWC): 0 μg/day/cm^2
- non-normalized release rate ([1]; Tecophilic HP-60D-10, 8.7% EWC): 25 µg/day
- release rate normalized to surface area of the implant ([1]; Tecophilic HP-60D-10, 8.7% EWC): 11 μg/day/cm^2
- non-normalized release rate ([1]; Tecophilic HP-60D-20, 15% EWC): 1500 µg/day
- release rate normalized to surface area of the implant ([1]; Tecophilic HP-60D-20, 15% EWC): 758 μg/day/cm^2
- non-normalized release rate ([1]; Tecophilic HP-60D-35, 24% EWC): 4000 µg/day
- release rate normalized to surface area of the implant ([1]; Tecophilic HP-60D-35, 24% EWC): 2022 μg/day/cm^2
- Relative Water Solubility [5]: Very soluble,

Compound: Cc1nc2n(c(=O)c1CCN1CCC(c3noc4cc(F)ccc34)CC1)CCCC2 [Risperidone]
- non-normalized release rate ([1]; Carbothane PC-3575A, F.M.: 620): 40 µg/day
- non-normalized release rate [1, 7]: 11 µg/day
- non-normalized release rate ([1]; Tecoflex EG 100A, F.M.: 10,000): 8 µg/day
- non-normalized release rate ([1]; Tecoflex EG-65D, F.M.: 37,000): 2 µg/day
- non-normalized release rate ([1]; Tecoflex EG-85A, F.M.: 2,300): 150 µg/day
- non-normalized release rate ([1]; Tecophilic HP-60D-20, 15% EWC): 150 µg/day
- Log P [2]: Log P = 3.28
- risperidone level in the dog plasma [6]: still present at a high level

Compound: C#CCN(C)[C@H](C)Cc1ccccc1 [Selegiline HCL]
- non-normalized release rate ([1]; Carbothane PC-3575A, F.M.: 620): 70 µg/day
- release rate normalized to surface area of the implant ([1]; Carbothane PC-3575A, F.M.: 620): 36 μg/day/cm^2
- non-normalized release rate [1, 7]: 30 µg/day
- release rate normalized to surface area of the implant [1, 7]: 15 μg/day/cm^2
- non-normalized release rate ([1]; Tecoflex EG 100A, F.M.: 10,000): 14 µg/day
- release rate normalized to surface area of the implant ([1]; Tecoflex EG 100A, F.M.: 10,000): 7.2 μg/day/cm^2
- non-normalized release rate ([1]; Tecoflex EG-65D, F.M.: 37,000): 8 µg/day
- release rate normalized to surface area of the implant ([1]; Tecoflex EG-65D, F.M.: 37,000): 4.1 μg/day/cm^2
- non-normalized release rate ([1]; Tecoflex EG-85A, F.M.: 2,300): 3000 µg/day
- release rate normalized to surface area of the implant ([1]; Tecoflex EG-85A, F.M.: 2,300): 1518 μg/day/cm^2
- non-normalized release rate ([1]; Tecophilic HP-60D-20, 15% EWC): 600 µg/day
- release rate normalized to surface area of the implant ([1]; Tecophilic HP-60D-20, 15% EWC): 294 μg/day/cm^2
